Test results as given in patent US20090227670A1, “PHARMACEUTICAL COMPOSITIONS COMPRISING FLAVONOIDS AND MENTHOL” (priority 2002, published 2009).

Columns and labels:
Format in all cases: cell-based, human rhinovirus
rhinovirus-T39 = assay: antiviral activity of HuIFN-α versus rhinovirus in presence and absence of menthol (MTS method, WISH cells); conditions: menthol 1:800
Method: Rhinovirus 1A, rhinovirus 15 and rhinovirus 39 were titrated according to the tetrazolium salt (MTS)-method (Berg et al., 1990) (Hansen et al., 1989)). WISH cells were seeded in a micro tray at 3000 cells per well and incubated at 37° C., 5% CO2 overnight; the following morning the medium was replaced with 10-fold dilutions of either rhinovirus 1A, rhinovirus 15 or rhinovirus 39, respectively, in fresh medium and the trays were incubated 4-5 days at 33° C.; a microscopical examination confirmed that the CytoPathogenic Effect (CPE) was fully developed (CPE equal to 100%). The minimal amount of virus (i.e.: the highest dilution of the virus in question) which produced 100% destruction was used as “challenge virus” in the subsequent experiments. To quantitate the CPE in terms of % destruction, MTS (Berg and Owen, 2003) was added to all cultures and after 3 h incubation at 37° C. (without CO2) the trays were read in a scanner as previously described (Berg et al., 1990). […]
The results were graphed with the concentration of interferon on the horizontal scale and the OD492 readings on the vertical scale.

rhinovirus T39 = assay: rhinovirus titration on WISH cell monolayers in presence or absence of menthol; conditions: menthol dilution 1:800; virus dilution range 10^2-10^3; WISH cells (FIG. 2A)
Method: Rhinovirus 1A, rhinovirus 15 and rhinovirus 39 were titrated according to the tetrazolium salt (MTS)-method (Berg et al., 1990) (Hansen et al., 1989)). WISH cells were seeded in a micro tray at 3000 cells per well and incubated at 37° C., 5% CO2 overnight; the following morning the medium was replaced with 10-fold dilutions of either rhinovirus 1A, rhinovirus 15 or rhinovirus 39, respectively, in fresh medium and the trays were incubated 4-5 days at 33° C.; a microscopical examination confirmed that the CytoPathogenic Effect (CPE) was fully developed (CPE equal to 100%). The minimal amount of virus (i.e.: the highest dilution of the virus in question) which produced 100% destruction was used as “challenge virus” in the subsequent experiments. To quantitate the CPE in terms of % destruction, MTS (Berg and Owen, 2003) was added to all cultures and after 3 h incubation at 37° C. (without CO2) the trays were read in a scanner as previously described (Berg et al., 1990). Control cell cultures, that were not infected with virus, were included in the experiment; the latter gave the highest OD as these cells were not damaged; depending on the concentration of virus added to the different wells, the OD492 varied, accordingly: 100% CPE yielded a low OD (<0.200); 0% CPE corresponding to no infection at all (controls cell) gave a high OD (>1.200). […]

RHV 1A, 17, and 39A = assay: rhinovirus titration in presence of menthol, all three rhinoviruses employed
Method: WISH cells were seeded in a micro tray at 3000 cells per well and incubated at 37° C., 5% CO2 overnight; the following morning the medium was replaced with 10-fold dilutions of either rhinovirus 1A, […], respectively, in fresh medium and the trays were incubated 4-5 days at 33° C.; a microscopical examination confirmed that the CytoPathogenic Effect (CPE) was fully developed (CPE equal to 100%). The minimal amount of virus (i.e.: the highest dilution of the virus in question) which produced 100% destruction was used as “challenge virus” in the subsequent experiments. To quantitate the CPE in terms of % destruction, MTS (Berg and Owen, 2003) was added to all cultures and after 3 h incubation at 37° C. (without CO2) the trays were read in a scanner as previously described (Berg et al., 1990). Control cell cultures, that were not infected with virus, were included in the experiment; the latter gave the highest OD as these cells were not damaged; depending on the concentration of virus added to the different wells, the OD492 varied, accordingly: 100% CPE yielded a low OD (<0.200); 0% CPE corresponding to no infection at all (controls cell) gave a high OD (>1.200). […]

Q: How did the “potentiation of interferon antiviral activity (interferon curve+menthol versus interferon curve)” value (rhinovirus-T39; interferon range 0 to 8 units/ml, HRV T39, similar at 10^-2.5) turn out when `CC(C)[C@@H]1CC[C@@H](C)C[C@H]1O` [Menthol, levo-(−)-Menthol] was run?
A: Its value is “specific potentiation”.

Q: What about the “protection compared to uninfected control cells” value (rhinovirus-T39; HRV T39 at 10^-2, IFN=0 units/ml, WISH cells, OD492 (FIG. 1A)) of the same molecule?
A: Its value is 10-15%.

Q: And the “increase in protection compared to virus controls receiving no menthol” value (rhinovirus T39)?
A: Its value is ~50%.

Q: And the protection against rhinovirus (RHV 1A, 17, and 39A)?
A: Its protection against rhinovirus is “protection was seen”.
